pIC50: −log10 of the molar value. Like-named read-outs stand apart in the source and are kept apart here.
Key:
[1] = Compound stability in human liver microsomes; assay type: in vitro ADME; conditions: for half-life at 5 μM / CLint scaled at 5 μM: pH 7.4; for half-life at 5 μM: read-out: Human T1/2; for CLint scaled at 5 μM: human liver microsomes, in vivo CLint extrapolated
Experimental: (§1) Human or rat liver microsomes incubations were conducted in duplicate in polypropylene tubes. The typical incubation mixtures consisted of human or rat liver microsomes (0.5 mg protein/mL), compounds of interest (5 μM) and NADPH (1.0 mM) in a total volume of 200 μL potassium phosphate buffer (PBS, 100 mM, pH=7.4). Compounds were dissolved in DMSO and diluted with PBS such that the final concentration of DMSO was 0.05%. The enzymatic reactions were commenced with the addition of […] after a 3-min preincubation and incubated in a water bath open to the air at 37° C. Reactions were terminated at various time points (0, 5, 10, 15, 30, 60 min) by adding equal volume of ice-cold acetonitrile. The samples were stored at −80° C. until LC/MS/MS assays.
(§2) The concentrations of compounds in the incubation mixtures of human or rat liver microsomes were determined by a LC/MS/MS method. The ranges of the linearity in the concentration range were determined for each tested compounds.
(§3) A parallel incubation was performed using denatured microsomes as the negative control, and reactions were terminated at various time points (0, 15, 60 min) after incubation at 37° C.
(§4) Dextromethorphan (70 μM) was selected as the positive control, and reactions were terminated at various time points (0, 5, 10, 15, 30, 60 min) after incubation at 37° C. Both positive and negative control samples were included in each assay to ensure the integrity of the microsomal incubation system.
(§5) The concentrations of compounds in human or rat liver microsome incubations were plotted as a percentage of the relevant zero time point control for each reaction. The in vivo CLint were extrapolated (ref: Naritomi Y, Terashita S, Kimura S, Suzuki A, Kagayama A, Sugiyama Y. Prediction of human hepatic clearance from in vivo animal experiments and in vitro metabolic studies with liver microsomes from animals and humans. Drug Metabolism and Disposition 2001, 29: 1316-1324).

[2] = Compound stability in rat liver microsomes; assay type: in vitro ADME; conditions: for half-life at 5 μM / CLint scaled at 5 μM: pH 7.4; for half-life at 5 μM: read-out: Rat T1/2; for CLint scaled at 5 μM: rat liver microsomes, in vivo CLint extrapolated
Experimental: as §1, §2, §3, §4, §5

[3] = Pharmacokinetic profiles in rats after intravenous and oral administration; assay type: in vivo; conditions: for F: oral dose generally 5 or 10 mg/kg; for AUC(0-t) / half-life / Vd: rat, plasma; for Vd: read-out: Vss
Experimental: The compounds disclosed herein are assessed in pharmacokinetic studies in mice, rats, dogs or monkeys. The compounds are administered as a water solution, 2% HPMC+1% TWEEN® 80 in water solution, 5% DMSO+5% solutol in saline, 4% MC suspension or capsule. For the intravenous administration, the animals are generally given at 1 or 2 mg/kg dose. For the oral (p.o.) dosing, mice and rats are generally given 5 or 10 mg/kg dose, and dogs and monkeys are generally given 10 mg/kg dose. The blood samples (0.3 mL) are drawn at 0.25, 0.5, 1.0, 2.0, 3.0, 4.0, 6.0, 8.0, 12 and 24 h time points or 0.083, 0.25, 0.5, 1.0, 2.0, 4.0, 6.0, 8.0 and 24 h time points and centrifuged at 3,000 or 4000 rpm for 2 to 10 min. The plasma solutions are collected, stored at −20° C. or −70° C. until analyzed by LC/MS/MS as described above.

[4] = target: T1, PI3K p110α/p85α (h) (Homo sapiens, UniProt P42336); assay: PI3K p110α/p85α (h) non-radioactive HTRF assay; assay type: biochemical
T1 construct: purchased Millipore UK Ltd (assay service)
T1 sequence (P42336 whole entry): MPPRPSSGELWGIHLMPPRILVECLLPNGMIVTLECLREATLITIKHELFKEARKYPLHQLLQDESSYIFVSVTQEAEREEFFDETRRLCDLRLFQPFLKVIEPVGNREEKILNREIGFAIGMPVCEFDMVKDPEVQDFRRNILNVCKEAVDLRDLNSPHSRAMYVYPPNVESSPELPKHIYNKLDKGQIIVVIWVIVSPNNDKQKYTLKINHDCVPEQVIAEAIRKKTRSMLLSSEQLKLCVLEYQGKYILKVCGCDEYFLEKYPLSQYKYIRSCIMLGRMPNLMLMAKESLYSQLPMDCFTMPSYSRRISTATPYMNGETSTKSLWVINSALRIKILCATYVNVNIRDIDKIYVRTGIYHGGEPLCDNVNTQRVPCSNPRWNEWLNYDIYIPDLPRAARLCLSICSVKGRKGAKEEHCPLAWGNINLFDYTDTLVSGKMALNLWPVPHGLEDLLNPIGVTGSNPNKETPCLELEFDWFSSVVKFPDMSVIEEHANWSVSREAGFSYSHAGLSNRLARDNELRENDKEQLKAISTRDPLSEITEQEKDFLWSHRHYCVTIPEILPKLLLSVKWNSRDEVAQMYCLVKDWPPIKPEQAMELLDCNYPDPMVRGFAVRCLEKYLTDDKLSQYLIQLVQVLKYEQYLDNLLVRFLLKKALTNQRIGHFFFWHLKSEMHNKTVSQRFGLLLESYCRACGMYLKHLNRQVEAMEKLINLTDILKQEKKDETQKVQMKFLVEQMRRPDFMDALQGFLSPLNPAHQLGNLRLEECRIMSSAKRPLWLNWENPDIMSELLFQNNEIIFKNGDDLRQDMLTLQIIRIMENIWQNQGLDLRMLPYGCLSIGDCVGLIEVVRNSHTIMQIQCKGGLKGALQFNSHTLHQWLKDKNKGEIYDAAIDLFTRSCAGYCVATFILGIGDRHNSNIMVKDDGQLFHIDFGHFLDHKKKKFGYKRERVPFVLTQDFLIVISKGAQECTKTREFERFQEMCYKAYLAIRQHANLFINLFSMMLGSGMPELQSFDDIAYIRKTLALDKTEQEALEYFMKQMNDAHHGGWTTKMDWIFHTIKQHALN
T1 sequence (P27986 whole entry partner): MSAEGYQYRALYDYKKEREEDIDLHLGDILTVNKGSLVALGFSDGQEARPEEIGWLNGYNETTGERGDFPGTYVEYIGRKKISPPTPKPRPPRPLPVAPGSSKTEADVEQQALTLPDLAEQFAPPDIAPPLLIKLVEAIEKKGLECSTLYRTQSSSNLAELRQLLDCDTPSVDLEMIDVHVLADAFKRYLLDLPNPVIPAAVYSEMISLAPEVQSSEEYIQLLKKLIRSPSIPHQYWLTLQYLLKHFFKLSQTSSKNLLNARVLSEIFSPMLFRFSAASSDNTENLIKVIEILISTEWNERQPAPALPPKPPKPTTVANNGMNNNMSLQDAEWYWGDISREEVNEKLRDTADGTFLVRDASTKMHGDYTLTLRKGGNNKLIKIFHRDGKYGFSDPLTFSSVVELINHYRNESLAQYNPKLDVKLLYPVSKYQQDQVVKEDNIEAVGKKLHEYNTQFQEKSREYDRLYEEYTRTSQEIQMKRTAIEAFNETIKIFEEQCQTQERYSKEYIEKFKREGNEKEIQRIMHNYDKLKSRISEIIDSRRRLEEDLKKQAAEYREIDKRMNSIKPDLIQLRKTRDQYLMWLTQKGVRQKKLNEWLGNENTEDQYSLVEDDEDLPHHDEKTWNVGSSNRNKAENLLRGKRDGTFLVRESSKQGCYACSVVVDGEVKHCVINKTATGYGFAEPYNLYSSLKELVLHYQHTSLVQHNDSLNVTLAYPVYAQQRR
Experimental: PI3K p110α/p85α (h) is incubated in assay buffer containing 10 μM phosphatidylinositol 4,5-bisphosphate and MgATP (concentration as required). The reaction is initiated by the addition of the ATP solution. After incubation for 30 minutes at room temperature, the reaction is stopped by the addition of stop solution containing EDTA and biotinylated phosphatidylinositol-3,4,5-trisphosphate. Finally, detection buffer is added, which contains europium-labelled anti-GST monoclonal antibody, GST-tagged GRP1 PH domain and streptavidin allophycocyanin. The plate is then read in timeresolved fluorescence mode and the homogenous time-resolved fluorescence (HTRF) signal is determined according to the formula HTRF=10000×(Em665 nm/Em620 nm).
The kinase assays described herein were performed at Millipore UK Ltd, Dundee Technology Park, Dundee DD2 1SW, UK.

[5] = test system: U87MG glioblastoma cells; assay: Tumor xenograft model (U87MG), tumor growth inhibition; assay type: in vivo, athymic nude mice; conditions: 12 days
Experimental: The efficacy of compounds disclosed herein was evaluated in a standard murine model of tumorigenesis. Human tumor cells (U87MG glioblastoma cells from ATCC) were expended in culture, harvested, and injected subcutaneously onto the rear flank of 6-7 week old female athymic nude mice (BALB/cA nu/nu, Hunan SLAC Laboratory Animal, Co.) (n=6-10 for vehicle group and for each dosing group). When tumors reached a volume of 100-250 mm^3, animals were randomly divided into vehicle control (for example, 5% DMSO+70% Captisol® (30%), 7% HCl (pH1), 18% Captisol® (30%); or 7% DMSO, 7% HCl (pH1), 70% Captisol® (30%), 16% Captisol® (30%), or the like) and compound groups. Subsequent administration of compound by oral gavage begins anywhere from day 0 to day 15 post tumor cell challenge and generally continues with once a day for the duration of the experiment.
Progression of tumor growth is assessed by tumor volumes and recorded as a function of time. The long (L) and short (W) axes of the subcutaneous tumors were measured with calipers twice weekly, and the tumor volume (TV) calculated as (L×W^2)/2). TGI was calculated from the difference between the median tumor volumes of vehicle-treated and drug-treated mice, expressed as a percentage of the median tumor volume of the vehicle-treated control group, by the following relation:
Initial statistical analysis is done by repeated measures analysis of variance (RMANOVA), followed by Scheffe psot hoc testing for multiple comparisons. Vehicle alone (5% DMSO+70% Captisol® (30%), 7% HCl (pH1), 18% Captisol® (30%); or 7% DMSO, 7% HCl (pH1), 70% Captisol® (30%), 16% Captisol® (30%), or the like) is the negative control.

[6] = human liver microsomes 0.5 mg protein/mL, compound 5 μM, NADPH 1.0 mM, 37° C.
[7] = rat liver microsomes 0.5 mg protein/mL, compound 5 μM, NADPH 1.0 mM, 37° C.

Structure (SMILES)	half-life at 5 μM [1, 6] [h]	CLint scaled at 5 μM [1] [mL/min/kg]	half-life at 5 μM [2, 7] [h]	CLint scaled at 5 μM [2] [mL/min/kg]	F ([3]; iv dose 2 mg/kg) [%]	Cl/F ([3]; iv dosing 2 mg/kg) [mL/min/kg]	AUC(0-t) ([3]; iv dosing 2 mg/kg) [ng·h/mL]	half-life ([3]; iv dosing 2 mg/kg) [h]	Vd ([3]; iv dosing 2 mg/kg) [L/kg]	pIC50 [4]	F ([3]; iv dose 1 mg/kg) [%]	Cl/F ([3]; iv dosing 1 mg/kg) [mL/min/kg]	AUC(0-t) ([3]; iv dosing 1 mg/kg) [ng·h/mL]	half-life ([3]; iv dosing 1 mg/kg) [h]	Vd ([3]; iv dosing 1 mg/kg) [L/kg]	Human T1/2 [1, 6]	Rat T1/2 [2, 7]	TGI % U87MG ([5]; 1 mg/kg oral gavage) [%]	TGI % U87MG ([5]; 3 mg/kg oral gavage) [%]	TGI % U87MG ([5]; 10 mg/kg oral gavage) [%]
COc1ncc(-c2ccc3ncc(C#CC(C)O)n3n2)cc1NS(=O)(=O)c1ccc(F)cc1F (centres unmarked) [Ex. 10, 2,4-difluoro-N-(5-(3-(3-hydroxybut-1-yn-1-yl)imidazo[1,2-b]pyridazin-6-yl)-2-methoxypyridin-3-yl)benzenesulfonamide]	8.79	3.3	4.66	8.89	79.88	0.5	67000	4.27	0.14	8.52								32	44	65
COc1ncc(-c2ccc3ncc(C#CC(C)(C)O)n3c2)cc1NS(=O)(=O)c1ccc(F)cc1F [Ex. 17, 2,4-difluoro-N-(5-(3-(3-hydroxy-3-methylbut-1-yn-1-yl)imidazo[1,2-a]pyridin-6-yl)-2-methoxypyridin-3-yl)benzenesulfonamide]	8.53	3.4	4.66	8.87							123.1	0.5	38700	5.3	0.17					
COc1ncc(-c2ccc3nnc(C#CC(C)O)n3c2)cc1NS(=O)(=O)c1ccc(F)cc1F (centres unmarked) [Ex. 23, 2,4-difluoro N (5 (3 (3 hydroxybut-1-yn-1-yl)-[1,2,4]-triazolo[4,3-a]pyridin-6-yl)-2-methoxypyridin-3-yl)benzenesulfonamide]											5.9	30.2	561	0.15	0.19	∞	∞			

The next lines start with results.

half-life at 5 μM [1, 6] [h]	CLint scaled at 5 μM [1] [mL/min/kg]	half-life at 5 μM [2, 7] [h]	CLint scaled at 5 μM [2] [mL/min/kg]	F ([3]; iv dose 2 mg/kg) [%]	Cl/F ([3]; iv dosing 2 mg/kg) [mL/min/kg]	AUC(0-t) ([3]; iv dosing 2 mg/kg) [ng·h/mL]	half-life ([3]; iv dosing 2 mg/kg) [h]	Vd ([3]; iv dosing 2 mg/kg) [L/kg]	pIC50 [4]	F ([3]; iv dose 1 mg/kg) [%]	Cl/F ([3]; iv dosing 1 mg/kg) [mL/min/kg]	AUC(0-t) ([3]; iv dosing 1 mg/kg) [ng·h/mL]	half-life ([3]; iv dosing 1 mg/kg) [h]	Vd ([3]; iv dosing 1 mg/kg) [L/kg]	Human T1/2 [1, 6]	Rat T1/2 [2, 7]	Structure (SMILES)	TGI % U87MG ([5]; 1 mg/kg oral gavage) [%]	TGI % U87MG ([5]; 3 mg/kg oral gavage) [%]	TGI % U87MG ([5]; 10 mg/kg oral gavage) [%]
									8.10	115.8	0.33	40400	4.92	0.15			COc1ncc(-c2ccc3ncc(C#CC(C)(C)O)n3n2)cc1NS(=O)(=O)c1ccc(F)cc1F [Ex. 11, 2,4-difluoro N (5 (3 (3 hydroxy-3-methylbut-1-yn-1-yl)imidazo[1,2-b]pyridazin-6-yl)-2-methoxypyridin-3-yl)benzenesulfonamide]			
18.8	1.54	1.59	26.1							95.8	1.5	11300	3.08	0.32			CC#Cc1cnc2ccc(-c3cnc(OC)c(NS(=O)(=O)c4ccc(F)cc4F)c3)nn12 [Ex. 13, 2,4-difluoro-N-(2-methoxy-5-(3-(prop-1-yn-1-yl)imidazo[1,2-b]pyridazin-6-yl)pyridin-3-yl)benzenesulfonamide]			

— US9926324B2, “Heteroaromatic compounds as PI3 kinase modulators and methods of use” (Calitor Sciences, LLC, priority 2012, dated 2018)
